Where two headings read alike, the source gives them in different places.
What was measured:
[1] = 1-octanol/water partition coefficient, shake-flask method; type: physicochemical; conditions: 37 °C
Protocol: The partition coefficient (logP value) is related closely to drug’s absorption in vivo. Furthermore, it can help to get a better understanding of drug’s physicochemical properties. The 1-octanol/water partition coefficient of NCE was measured by a shake-flask method. Both the 1-octanol and aqueous buffer solution were saturated before performing the experiments. Solutions of about 3.3 mM NCE were prepared in aqueous 0.1 M HCl (pH = 1.0) solution and PBS buffer (pH = 6.8) solutions. Then, 1 mL of 1-octanol was added to 9 mL of the aqueous NCE solution in glass flasks. The mixtures were then stirred in a mechanical shaker for 6 h (37 °C). Samples were left in water baths and kept at the appropriate temperature (37 °C) for at least 72 h. After that, the concentrations in the aqueous phase and 1-octanol phase were determined by HPLC, respectively. The partition coefficients were calculated by the following equation. All the partitioning experiments were performed in at least triplicate.
(1) P1-octanol/water=lg (C1-octanol/Cwater)
where P1-octanol/water is the partition coefficient value; C1-octanol is the drug’s concentration in 1-octanol phase; Cwater is the drug’s concentration in aqueous solution.

[2] = Intrinsic dissolution rate (IDR) measurement; type: physicochemical; conditions: phosphate buffer pH 6.8 with 1% SDS, 37 °C, 75 rpm, initial 4 h
Protocol: A modified IDR measurement method was carried out. In brief, 50 mg NCE was compressed under an average compression force of 3.0 MPa for 1 min to make a non-disintegrating compact using a 5 mm die and punch. The surface area of the compact was 0.1963 cm^2. Compacts were placed in a molten beeswax-mold in a way that only one side could come in contact with the dissolution medium. Dissolution study was conducted employing USP II dissolution apparatus using 900 mL phosphate buffer (0.1 mol/mL, pH = 6.8) with 1% SDS (w/v) at 37 ± 1 °C. The paddle rotating speed was 75 rpm. Samples were collected every 30 min for a period of 8 h and analyzed by HPLC. Samples were tested in triplicates.
To evaluate the IDR of NCE, the cumulative amount dissolved per surface unit of the compact was plotted against time. The slope of the linear region (R^2 ≥ 0.95) was taken as the intrinsic dissolution rate. IDR was calculated by the following equation as described previously.
(2) IDR=(dw/dt)(1/S)=DCs/h
where IDR is the intrinsic dissolution rate (mg/min/cm^2); dw is the change in drug dissolved (mg); dt is the change in time (min); S is the surface area of the compact (cm^2); D is diffusion coefficient (cm^2/s); Cs is the solubility (mg/cm^3) and h is the stagnant layer thickness (cm).

[3] = Biopharmaceutics Classification System (BCS) classification; conditions: IDR below borderline value of 1 mg·min^−1·cm^−2
Excerpt: Targeted small-molecular inhibitors are promising antitumor candidates compared to the traditional chemotherapy drugs due to their high efficiency and low toxicity. Their common formulations are oral preparations with good compliance. The essential parameters controlling oral drug absorption are the permeability of the drug through the gastrointestinal (GI) membrane and the drug solubility/dissolution in GI milieu. Biopharmaceutics Classification System (BCS) is a modern tool to characterize drug permeability and solubility/dissolution [4, 5]. […] By using BCS system, some drug-drug interactions could be prevented and the in vivo bioavailability testing of the immediate release dosage forms of class I and III drugs could be bypassed. Up till now, there is rare systemic report about specific classification method according to BCS, especially for a novel drug candidate.
According to the Food and Drug Administration (FDA) guidance for biowaiver request of immediate-release solid oral dosage forms, a drug substance is considered as high soluble when the highest dose strength is soluble in ≤250 mL of aqueous media over the pH range of 1.0–7.5 [7]. However, the choice of different dose has a great impact on the dose/solubility ratio and then affects the classification of drugs. […]

[4] = Pharmacokinetic study in beagle dogs; type: in vivo; conditions: 30 mg/kg; for AUC(0-t) / Cmax / MRT / Tmax / half-life / bioavailability: beagle, dog, plasma
Protocol: Six healthy beagle dogs (7.97 ± 0.73 kg) were randomly assigned into two groups. NCE was given to the dogs by intragastrical (i.g.) and intravenous (i.v.) administration at a dosage of 30 mg/kg. Blood was collected from the forelimb vein of the dogs at 0.25, 0.5, 0.75, 1, 2, 3, 4, 6, 8, 10, 12 and 24 h. Plasma samples were obtained by centrifuging blood at 3000 rpm for 10 min and were stored at −20 °C. Before analysis, acetonitrile was added into the plasma and the mixture was vortexed for 5 min to precipitate the protein. Then, the samples were centrifuged for 10 min at a speed of 1.3 × 10^4 rpm. The supernatant was collected and the solvent was removed by pressure blowing concentrator. Then, mobile phase was added to dissolve the residual. The concentrations of NCE in plasma were determined by HPLC.
The pharmacokinetic parameters were calculated using the pharmacokinetics-intelligent analysis module of DAS 2.1.1 software. Total areas under the concentration-time curve (AUC) after i.g. and i.v. administration were determined by extrapolation from time 0−t (AUC0−t), respectively. The oral bioavailability of NCE was estimated using the ratio of AUC values following i.g. and i.v. administration.

In the case of `CNC(=O)c1cc(Oc2ccc(NC(=O)c3cccc(C(F)(F)F)c3)cc2)ccn1.Cc1ccc(S(=O)(=O)O)cc1.O` [NCE, 2-methylcarbamoyl-4-{4-[3-(trifluoromethyl)benzamido]phenoxy} pyridinium 4-methylbenzenesulfonate monohydrate], the logP at 6 h ([1]; 1-octanol / 0.1 M HCl solution (pH = 1.0)) is reported as 3.1 ± 0.04, the logP at 6 h ([1]; 1-octanol/PBS pH 6.8, pH 6.8, 1-octanol / PBS 6.8 solution) is reported as 4.2 ± 0.07 and the “Intrinsic dissolution rate (IDR)” value [2] is reported as 1 × 10^−4 mg·min^−1·cm^−2. The solubility class [3] was “low solubility”, the “i.v./i.g. AUC0−t ratio” value ([4]; beagle dogs) was 4.19 and the “i.v./i.g. Cmax ratio” value ([4]; beagle dogs) was “about 11.10”. For the same compound, the AUC(0-t) ([4]; iv, Beagle 1) was 56200 ng·h/mL, the Cmax ([4]; iv, Beagle 1) was 26000 ng/mL and the MRT ([4]; iv, Beagle 1) was 1.84 h. It also gave a Tmax ([4]; iv, Beagle 1) of 0.23 h, a half-life ([4]; iv, Beagle 1) of 6.39 h and an AUC(0-t) ([4]; iv, Beagle 2) of 34400 ng·h/mL. The Cmax ([4]; iv, Beagle 2) was 23700 ng/mL, the MRT ([4]; iv, Beagle 2) was 1.68 h and the Tmax ([4]; iv, Beagle 2) was 0.3 h. It also gave a half-life ([4]; iv, Beagle 2) of 3.56 h, an AUC(0-t) ([4]; iv, Beagle3) of 25100 ng·h/mL and a Cmax ([4]; iv, Beagle3) of 21600 ng/mL. It also gave an MRT ([4]; iv, Beagle3) of 1.35 h, a Tmax ([4]; iv, Beagle3) of 0.22 h and a half-life ([4]; iv, Beagle3) of 9.23 h. The AUC(0-t) ([4]; iv, mean ± SD, n = 3) was 38600 ± 16000 ng·h/mL, the Cmax ([4]; iv, mean ± SD, n = 3) was 23800 ± 2230 ng/mL and the MRT ([4]; iv, mean ± SD, n = 3) was 1.62 ± 0.25 h. For the same compound, the Tmax ([4]; iv, mean ± SD, n = 3) was 0.25 ± 0.04 h, the half-life ([4]; iv, mean ± SD, n = 3) was 6.39 ± 2.83 h and the AUC(0-t) ([4]; po, i.g., Beagle 4) was 6860 ng·h/mL. For the same compound, the Cmax ([4]; po, i.g., Beagle 4) was 3500 ng/mL, the MRT ([4]; po, i.g., Beagle 4) was 10.8 h and the Tmax ([4]; po, i.g., Beagle 4) was 2 h. For the same compound, the half-life ([4]; po, i.g., Beagle 4) was 12.3 h, the bioavailability ([4]; po, i.g., Beagle 4, read-out: F, absolute bioavailability) was 12.2% and the AUC(0-t) ([4]; po, i.g., Beagle 5) was 13600 ng·h/mL. The Cmax ([4]; po, i.g., Beagle 5) was 860 ng/mL, the MRT ([4]; po, i.g., Beagle 5) was 10.6 h and the Tmax ([4]; po, i.g., Beagle 5) was 1.73 h. For the same compound, the half-life ([4]; po, i.g., Beagle 5) was 17.3 h, the bioavailability ([4]; po, i.g., Beagle 5, read-out: F, absolute bioavailability) was 39.6% and the AUC(0-t) ([4]; po, i.g., Beagle 6) was 7160 ng·h/mL. It also gave a Cmax ([4]; po, i.g., Beagle 6) of 2060 ng/mL, an MRT ([4]; po, i.g., Beagle 6) of 11.2 h and a Tmax ([4]; po, i.g., Beagle 6) of 2 h. It also gave a half-life ([4]; po, i.g., Beagle 6) of 14.9 h, a bioavailability ([4]; po, i.g., Beagle 6, read-out: F, absolute bioavailability) of 28.5% and an AUC(0-t) ([4]; po, i.g., mean ± SD, n = 3) of 9210 ± 3820 ng·h/mL. The Cmax ([4]; po, i.g., mean ± SD, n = 3) was 2140 ± 1320 ng/mL, the MRT ([4]; po, i.g., mean ± SD, n = 3) was 10.8 ± 0.31 h and the Tmax ([4]; po, i.g., mean ± SD, n = 3) was 1.91 ± 0.15 h. It also gave a half-life ([4]; po, i.g., mean ± SD, n = 3) of 14.8 ± 2.53 h and a bioavailability ([4]; po, i.g., mean ± SD, n = 3, read-out: F, absolute bioavailability) of 26.8 ± 13.8%.
